Paper PMC5665533, “Generation of G protein-coupled receptor antibodies differentially sensitive to conformational states” (PLoS ONE, 2017)

Target: T1, dopamine D1 receptor (D1R) (Homo sapiens, UniProt P21728)
T1 construct: gene DRD1; endogenous full-length receptor in SK-N-SH neuroblastoma cells
Assay: ELISA, agonist-induced receptor recognition by anti-D1R antibody, SK-N-SH cells
Format: cell-based
Details: 1 μM agonist; endogenous receptor

T1 sequence (P21728 whole entry): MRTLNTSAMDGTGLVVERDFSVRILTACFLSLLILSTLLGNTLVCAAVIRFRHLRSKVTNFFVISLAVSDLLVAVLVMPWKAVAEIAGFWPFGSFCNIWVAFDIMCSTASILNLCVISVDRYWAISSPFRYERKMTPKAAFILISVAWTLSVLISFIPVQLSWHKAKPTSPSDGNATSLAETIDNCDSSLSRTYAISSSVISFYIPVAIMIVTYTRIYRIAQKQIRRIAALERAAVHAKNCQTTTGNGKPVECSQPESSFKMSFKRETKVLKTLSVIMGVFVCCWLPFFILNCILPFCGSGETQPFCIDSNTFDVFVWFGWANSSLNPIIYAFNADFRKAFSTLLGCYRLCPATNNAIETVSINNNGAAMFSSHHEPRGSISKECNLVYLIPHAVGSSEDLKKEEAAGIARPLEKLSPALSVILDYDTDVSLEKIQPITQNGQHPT

C=CCN1CCc2c(cc(O)c(O)c2Cl)C(c2cccc(C)c2)C1 (stereo not shown) [SKF83822]
ELISA, agonist-induced receptor recognition by anti-D1R antibody, SK-N-SH cells: treatment with the dopamine D1 receptor (D1R) agonist, SKF83822
